According to patent publication US5770563A, “Heparin- and sulfatide binding peptides from the type I repeats of human thrombospondin and conjugates thereof” (The United States of America as represented by the …, priority 1995, dated 1998):
Square brackets hold non-standard residues; d marks the D form. Peptide text beside a SMILES is read from it.

Key:
[1] = system: thrombospondin binding to heparin; test: Inhibition of 125I-thrombospondin binding to immobilized heparin-BSA; design: species or system human
Outline: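 Solid-phase binding: heparin-BSA (0.2 μg/well) adsorbed 2 h at 37° in Dulbecco's PBS, blocked with tris-BSA. Peptides in 50 mM tris pH 7.8, NaCl, 1 mM CaCl2, 0.025% NaN3, 1% BSA mixed with 125I-thrombospondin (added at 0.2 μg/ml), 3 h at 4°; after saline washes, bound radioactivity counted.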

[2] = system: bovine aortic endothelial cells; test: Proliferation of bovine aortic endothelial cells; format: cell-based; details: free peptide, 40 μM
Method: Endothelial cell proliferation was measured using the CELL TITER 96™ assay (Promega, Madison, Wis.). 5×10^3 cells were plated into each well of a 96-well culture plate in 0.5 or 5% FCS-containing medium together with the indicated concentrations of growth effectors. After 72 h, 15 μl of dye solution was added to each well, and the plates were incubated for an additional 4 h. Solubilization solution was added, and absorbance at 570 nm was determined after 24 h as described by the manufacturer.
FICOLL conjugates of peptide 353 (SEQ ID NO:28) (GGWSHWSPWSSC), 354 (SEQ ID NO:29) (CGGWSHWSPWSS), 224 364 g (SEQ ID NO:30) and 387 (SEQ ID NO:30) (three syntheses of KRFKQDGGWSHWSPWSSC), or free FICOLL were tested at the indicated concentrations as inhibitors of proliferation of bovine aortic endothelial cells in DMEM medium containing 0.5% (FIG. 24A) or 5% (FIG. 24B) fetal calf serum. […] Therefore, the conjugates are general inhibitors of both large and small vessel endothelial cell proliferation. […]
Proliferation of bovine aortic endothelial cells was also determined for cells grown in the presence of the indicated concentrations of peptide 246 (KRFKQDGGWSHWSPWSS) (SEQ ID NO:19) or peptide 416 (retro-inverso) in RPMI-HITES (reg medium) or corresponding conditioned medium from MDA 435 breast carcinoma cells. […]

[3] = system: MDA MB435 breast carcinoma cells; test: MDA MB435 human breast carcinoma cell proliferation; format: cell-based; details: free peptide
Method: Human breast carcinoma cells MDA MB435 (American Type Culture Collection) were grown in RPMI 1640 medium containing 10% fetal calf serum. Proliferation was determined as described in FIG. 18 and 44A, B and C.
Human breast carcinoma cells MDA MB435 (American Type Culture Collection) were grown in RPMI 1640 medium containing 10% fetal calf serum. Proliferation was determined in the presence of 0.5% fetal calf serum and bFGF as described in FIG. 19.

[4] = system: MDA MB435 tumor; test: MDA MB435 orthotopic tumor growth in nude mice; format: in vivo, mouse
Method: (§1) Tumor cells were allowed to implant for approximately one to three weeks prior to administering the peptide analog or a polysucrose conjugate. […] The inhibitory effect persisted beyond the treatment period, although the growth of the tumors eventually resumed.
The presented experiment consisted of two groups of animals. The objective was to test a peptide conjugate for effects on breast carcinoma growth. The treated animals were injected with MDA435 cells alone on day one and then injected intravenously with drugs from day 10 through approximately day 30. Tumor growth and frequency of metastasis were determined in both groups.
NIH Nu/Nu mice, approximately eight weeks of age are injected with 10^5 MDA MB435 cells by the mammary fat pad route. Mice were anesthetized with 150-200 μl i.p. of a 1:80 dilution in PBS of a solution containing 25 g. tribromoethanol in 12.5 ml tertiary amyl alcohol. The mammary fat pad was cleaned with ethanol and a 10 mm incision was made directly above the site of injection. Mammary fat pad #4 could be observed beneath the skin after the incision was made. Using a 0.1 ml Hamilton syringe and 27 gauge 1/2" needle, 10 μl of cell suspension, 1×10^5 cells in HBSS, are injected into the fat pad. The incision is closed using 1-2 Autoclips ([…], Clay Adams). Autoclips are removed 7 days post-injection and scarring is minimal.
Six animals were injected for each condition, per experiment. Animals were earpunched after injection for subsequent identification. Beginning at day 10 and continuing every day until approximately day 30, the experimental animals were injected i.v. (tail vein) with 0.1 ml of the FICOLL conjugate. Primary tumor size was determined twice weekly by length×width×height measurement, and the animals are observed daily for general health. When the primary tumor of any animal exceeded 20 mm in any dimension, all of the animals were sacrificed. The presence of metastases was determined by gross autopsy and examination of H & E stained sections of any suspicious organ and step sections of the lungs and draining lymph nodes. The primary tumors were removed, stripped free of other tissues, and weighed. At any time during the experiment, animals suspected of being in distress were sacrificed and examined as above.

[5] = Toxicity in nude mice; format: in vivo, mouse; details: free peptide, up to 10 mg/kg
From the text: as §1
Based on published studies of related peptide conjugates (Braatz J. A., Yashuda Y., Olden K., Yamada K. M., Heifetz A. H. (1993): Functional peptide-polyurethane conjugates with extended circulatory half lives. Bioconjugate Chem 4:262-267), the conjugates are predicted have circulating half lives on the order of 10 hours. Free peptides usually have circulating half lives of less than 10 minutes, based on published results. The short half lives were due to clearance or stability of the peptides in plasma. Use of nonhydrolyzable amino acid analogs or capping modifications of the peptides decreases sensitivity to degradation.

[6] = system: AIDS-KS cells; test: AIDS-KS cell proliferation; format: cell-based, human
Method: AIDS-KS cell strains were cultured as previously described (Nakamura, S. et al. "Kaposi's Sarcoma Cells: Long-Term Culture with Growth Factor From Retrovirus-Infected CD4+T Cells", Science, (1988) 242:426; and Salahuddin, S. Z. et al. "Angiogenic Properties of kaposi's Sarcoma-Derived Cells After Long-Term Culture In Vitro", Science (1988) 242:430). TSP was purified from thrombin-stimulated human platelets as described. TSP peptides and peptide conjugates were synthesized corresponding to sequences of human TSP as described.
For the cell proliferation assays 1×10^3 cells/well were seeded in triplicate in 24 well flat bottom plates (Falcon, Franklin Lakes, N.J.) that contained the required dilutions of TSP, TSP peptide-FICOLL conjugates, and growth factors: 1) Oncostatin M (OSM) (PreProtech) at 25 ng/ml, or 2) activated lymphocyte conditioned medium (AL-CM) at 20%. After 7 days, the cells were trypsinized and counted using a Coulter Zm Cell Counter (Coulter Corporation). The values are triplicate determinations and the bars indicate standard deviations, n=3.

[7] = system: AIDS-KS cells; test: AIDS-KS cell chemotaxis, modified Boyden chamber; format: cell-based, human
Method: Directed migration (chemotaxis) and general migration (chemokinesis) of AIDS-KS cells in culture was measured by the modified Boyden chamber assay using fibronectin coated […] Nucleopore filters as previously described. In brief, the AIDS-KS cells, were trypsinized then resuspended in RPMI 1640 containing […] (GIBCO-BRL) and 20% activated lymphocyte conditioned medium. The trypsinized cells were allowed to recover in suspension for 2 hours, then the cells were recovered by centrifugation and resuspended in RPMI 1640 containing 0.1% BS at 5×10^5 cells/ml prior to adding 100 μl to the upper wells in the chemotaxis chamber. Migration to BSA (0.1%) and OSM was performed in the presence of the indicated concentrations of TSP, and TSP peptide-FICOLL conjugates. After 3 hours incubation at 37° C. filters were stained with Diff Quick (Merz-Dade, Dudingen, Switzerland), and the migrated cells in ten high-power fields were counted. The values are triplicate determinations and the bars indicate standard deviations, n=3.

Q: Which results are given for `CC(=O)N[C@H](CS)C(=O)N[C@H](CO)C(=O)N[C@H](CO)C(=O)N[C@H](Cc1c[nH]c2ccccc12)C(=O)N1CCC[C@@H]1C(=O)N[C@H](CO)C(=O)N[C@H](Cc1c[nH]c2ccccc12)C(=O)N[C@H](Cc1c[nH]cn1)C(=O)N[C@H](CO)C(=O)N[C@H](Cc1c[nH]c2ccccc12)C(=O)NCC(=O)NCC(=O)N[C@H](CC(=O)O)C(=O)N[C@H](CCC(N)=O)C(=O)N[C@H](CCCCN)C(=O)N[C@H](Cc1ccccc1)C(=O)N[C@H](CCCNC(=N)N)C(=O)N[C@H](CCCCN)C(N)=O` [Peptide 416, ri-amKRFKQDGGWSHWSPWSSCac] (Ac-[dC][dS][dS][dW][dP][dS][dW][dH][dS][dW]GG[dD][dQ][dK][dF][dR][dK]-NH2)?
A: inhibition of thrombospondin binding to heparin, in words ([1]; FICOLL conjugate): active; inhibition of thrombospondin binding to heparin, in words ([1]; free peptide): retains heparin-binding activity; inhibition of thrombospondin binding to heparin, in words ([1]; free peptide, listed as all D-acCSSWPSWHSWGGDQKFRKam): retained full activity; activity relative to the native sequence ([1]; free retro-inverso peptide): approximately three-fold less; IC50 ([1]; retro-inverso peptides, free, read-out: IC50 Inhibitory Activity, Free Peptide): 400 nM; inhibition of aortic endothelial cell proliferation, in words [2]: significantly inhibit proliferation; inhibition of MDA MB435 proliferation, in words [3]: substantial inhibition of MDA cell proliferation; tumor growth, dose response ([4]; 0.2 to 6 mg/kg, treatment with 6 mg/kg): maximal inhibition of tumor growth; tumor growth ([4]; free peptide, daily intravenous, 2 mg/kg): significantly inhibited tumor growth; tumor growth ([4]; polysucrose/FICOLL conjugate, intravenous): No significant inhibition of tumor growth; toxicity [5]: without overt toxicity

Q: Which “inhibition of AIDS-KS cell proliferation, in words” value [6] does the source give for “TSP: thrombospondin purified from thrombin-stimulated human platelets” here?
A: concentration dependent decrease in cell number

Q: And the “stimulation of AIDS-KS cell motility” value ([7]; added in the lower well)?
A: dose-dependent stimulation of AIDS-KS cell motility

Q: And the IC50 ([7]; added with OSM, read-out: IC50 inhibition of OSM stimulated migration)?
A: < 110 nM
